Source: patent US8987195B2 (priority 2012, dated 2015)
Where two headings read alike, the source gives them in different places.

Key:
[1] = target: HCV NS3/4A protease genotype 1b (Hepatitis C virus genotype 1b, UniProt P26663); experiment: HCV NS3/4A protease time-resolved fluorescence (TRF) assay, Ki against genotype 1b; type: biochemical; conditions: IC50 [gt-1b] (nM), NS3/4A genotype 1b, enzyme 0.2 nM
In short: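 Ki values come from IC50 fits corrected for substrate concentration and KM. The time-resolved fluorescence protease reaction used 25 nM peptide substrate, 2.5 h, room temperature, pH 7.5 HEPES buffer, after 30 min enzyme–inhibitor preincubation.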

HCV genotype 1b replicon = experiment: HCV replicon assay, genotype 1b replicon EC50; type: cell-based, Hepatitis C virus; conditions: genotype 1b replicon, read-out: EC50 [gt-1b]
In short: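 Assay format: compound titration on stable replicon cells, no G418 during treatment, 24 to 48 hours. Lysates were assayed for replicon RNA (hybridization/protection or TaqMan) or luciferase; EC50 fitted to four parameters against DMSO.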

HCV NS3/4A protease genotype 1b, sequence (P26663 1027-1657): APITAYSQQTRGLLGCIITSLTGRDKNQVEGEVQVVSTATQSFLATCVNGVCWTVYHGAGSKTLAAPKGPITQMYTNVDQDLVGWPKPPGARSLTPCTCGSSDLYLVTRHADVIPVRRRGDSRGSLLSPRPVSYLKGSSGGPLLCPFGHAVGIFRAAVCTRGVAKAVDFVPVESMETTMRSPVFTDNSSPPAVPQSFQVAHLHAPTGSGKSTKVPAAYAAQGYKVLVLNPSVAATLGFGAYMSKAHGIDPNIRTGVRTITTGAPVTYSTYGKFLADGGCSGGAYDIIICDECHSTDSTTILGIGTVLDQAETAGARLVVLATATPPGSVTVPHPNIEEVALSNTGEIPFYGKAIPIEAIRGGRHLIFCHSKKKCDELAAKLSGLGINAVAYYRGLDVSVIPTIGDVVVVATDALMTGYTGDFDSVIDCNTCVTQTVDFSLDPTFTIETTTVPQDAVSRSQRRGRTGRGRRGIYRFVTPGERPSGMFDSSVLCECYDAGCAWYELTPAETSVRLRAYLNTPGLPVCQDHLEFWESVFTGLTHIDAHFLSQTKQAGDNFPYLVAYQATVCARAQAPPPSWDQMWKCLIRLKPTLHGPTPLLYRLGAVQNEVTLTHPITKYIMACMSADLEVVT
HCV NS3/4A protease genotype 1b, sequence (P26663 1658-1711): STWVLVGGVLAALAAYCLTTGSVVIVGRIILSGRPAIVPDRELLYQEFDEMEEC

Row | SMILES | IC50 ([1]; K+ salt) | EC50 (HCV genotype 1b replicon; Hepatitis C virus, K+ salt) | IC50 [1] | EC50 (HCV genotype 1b replicon; Hepatitis C virus) | EC50 (HCV genotype 1b replicon)
1 | Cc1nc2cc(F)c(F)cc2c2c1O[C@]1(CC2)C[C@H]2C(=O)N[C@]3(C(=O)NS(=O)(=O)C4(C)CC4)C[C@H]3/C=C\CCCCC[C@H](NC(=O)OC3CCCC3)C(=O)N2C1 [Example 193, cyclopentyl [(2R,6S,12Z,13aS,14aR,16aS)-8′,9′-difluoro-5′-methyl-14a-{[(1-methylcyclopropyl)sulfonyl]carbamoyl}-5,16-dioxo-1,1′,2′,5,6,7,8,9,10,11,13a,14,14a,15,16,16a-hexadecahydrospiro[cyclopropa[e]pyrrolo[1,2-a][1,4]diazacyclopentadecine-2,3′-pyrano[2,3-c]quinolin]-6-yl]carbamate] | 0.007 nM | 31.1 nM |  |  | 
2 | Cc1nc2ccccc2c2c1O[C@]1(CC2)C[C@H]2C(=O)N[C@]3(C(=O)NS(=O)(=O)C4(C)CC4)C[C@H]3/C=C\CCCCC[C@H](NC(=O)OC3CCC(F)(F)CC3)C(=O)N2C1 [Example 196, 4,4-difluorocyclohexyl [(2R,6S,12Z,13aS,14aR,16aS)-5′-methyl-14a-{[(1-methylcyclopropyl)sulfonyl]carbamoyl}-5,16-dioxo-1,1′,2′,5,6,7,8,9,10,11,13a,14,14a,15,16,16a-hexadecahydrospiro[cyclopropa[e]pyrrolo[1,2-a][1,4]diazacyclopentadecine-2,3′-pyrano[2,3-c]quinolin]-6-yl]carbamate] |  |  | 0.003 nM | 5.53 nM | 
3 | Cc1nc2ccccc2c2c1O[C@]1(CC2)C[C@H]2C(=O)N[C@]3(C(=O)NS(=O)(=O)C4(C)CC4)C[C@H]3/C=C\CCCCC[C@H](NC(=O)OC(C)C(F)(F)F)C(=O)N2C1 (stereo partly drawn) [Example 197, 1,1,1-trifluoropropan-2-yl [(2R,6S,12Z,13aS,14aR,16aS)-5′-methyl-14a-{[(1-methylcyclopropyl)sulfonyl]carbamoyl}-5,16-dioxo-1,1′,2′,5,6,7,8,9,10,11,13a,14,14a,15,16,16a-hexadecahydrospiro[cyclopropa[e]pyrrolo[1,2-a][1,4]diazacyclopentadecine-2,3′-pyrano[2,3-c]quinolin]-6-yl]carbamate] |  |  | 0.004 nM |  | 9.87 nM
4 | COc1ccc2nc(C)c3c(c2c1)CC[C@]1(C[C@H]2C(=O)N[C@]4(C(=O)NS(=O)(=O)C5(C)CC5)C[C@H]4/C=C\CCCCC[C@H](NC(=O)OC4CCCC4C)C(=O)N2C1)O3 (stereo partly drawn) [Example 200, 2-methylcyclopentyl [(2R,6S,12Z,13aS,14aR,16aS)-9′-methoxy-5′-methyl-14a-{[(1-methylcyclopropyl)sulfonyl]carbamoyl}-5,16-dioxo-1,1′,2′,5,6,7,8,9,10,11,13a,14,14a,15,16,16a-hexadecahydrospiro[cyclopropa[e]pyrrolo[1,2-a][1,4]diazacyclopentadecine-2,3′-pyrano[2,3-c]quinolin]-6-yl]carbamate] | 0.005 nM | 0.369 nM |  |  | 
5 | Cc1nc2cc(F)c(F)cc2c2c1O[C@]1(CC2)C[C@H]2C(=O)N[C@]3(C(=O)NS(=O)(=O)C4(C)CC4)C[C@H]3/C=C\CCCCC[C@H](NC(=O)OCC(C)C)C(=O)N2C1 [Example 201, 2-methylpropyl [(2R,6S,12Z,13aS,14aR,16aS)-8′,9′-difluoro-5′-methyl-14a-{[(1-methylcyclopropyl)sulfonyl]carbamoyl}-5,16-dioxo-1,1′,2′,5,6,7,8,9,10,11,13a,14,14a,15,16,16a-hexadecahydrospiro[cyclopropa[e]pyrrolo[1,2-a][1,4]diazacyclopentadecine-2,3′-pyrano[2,3-c]quinolin]-6-yl]carbamate] | 0.007 nM | 0.91 nM |  |  | 
6 | Cc1nc2cc(F)c(F)cc2c2c1O[C@]1(CC2)C[C@H]2C(=O)N[C@]3(C(=O)NS(=O)(=O)C4(C)CC4)C[C@H]3/C=C\CCCCC[C@H](NC(=O)OCC(C)(C)C)C(=O)N2C1 [Example 202, 2,2-dimethylpropyl [(2R,6S,12Z,13aS,14aR,16aS)-8′,9′-difluoro-5′-methyl-14a-{[(1-methylcyclopropyl)sulfonyl]carbamoyl}-5,16-dioxo-1,1′,2′,5,6,7,8,9,10,11,13a,14,14a,15,16,16a-hexadecahydrospiro[cyclopropa[e]pyrrolo[1,2-a][1,4]diazacyclopentadecine-2,3′-pyrano[2,3-c]quinolin]-6-yl]carbamate] | 0.009 nM | 1.43 nM |  |  | 
7 | COc1ccc2nc(C)c3c(c2c1)CC[C@]1(C[C@H]2C(=O)N[C@]4(C(=O)NS(=O)(=O)C5(C)CC5)C[C@H]4/C=C\CCCCC[C@H](NC(=O)OCC(C)(C)C)C(=O)N2C1)O3 [Example 205, 2,2-dimethylpropyl [(2R,6S,12Z,13aS,14aR,16aS)-9′-methoxy-5′-methyl-14a-{[(1-methylcyclopropyl)sulfonyl]carbamoyl}-5,16-dioxo-1,1′,2′,5,6,7,8,9,10,11,13a,14,14a,15,16,16a-hexadecahydrospiro[cyclopropa[e]pyrrolo[1,2-a][1,4]diazacyclopentadecine-2,3′-pyrano[2,3-c]quinolin]-6-yl]carbamate] | 0.005 nM | 0.647 nM |  |  | 
8 | COc1ccc2nc(C)c3c(c2c1)CC[C@]1(C[C@H]2C(=O)N[C@]4(C(=O)NS(=O)(=O)C5(C)CC5)C[C@H]4/C=C\CCCCC[C@H](NC(=O)OC4CCCCC4)C(=O)N2C1)O3 [Example 206, cyclohexyl [(2R,6S,12Z,13aS,14aR,16aS)-9′-methoxy-5′-methyl-14a-{[(1-methylcyclopropyl)sulfonyl]carbamoyl}-5,16-dioxo-1,1′,2′,5,6,7,8,9,10,11,13a,14,14a,15,16,16a-hexadecahydrospiro[cyclopropa[e]pyrrolo[1,2-a][1,4]diazacyclopentadecine-2,3′-pyrano[2,3-c]quinolin]-6-yl]carbamate] | 0.005 nM | 0.808 nM |  |  | 
9 | COCC(C)(C)OC(=O)N[C@H]1CCCCC/C=C\[C@@H]2C[C@@]2(C(=O)NS(=O)(=O)C2(C)CC2)NC(=O)[C@@H]2C[C@]3(CCc4c(c(C)nc5ccc(OC(F)(F)F)cc45)O3)CN2C1=O [Example 207, 1-methoxy-2-methylpropan-2-yl [(2R,6S,12Z,13aS,14aR,16aS)-5′-methyl-14a-{[(1-methylcyclopropyl)sulfonyl]carbamoyl}-5,16-dioxo-9′-(trifluoromethoxy)-1,1′,2′,5,6,7,8,9,10,11,13a,14,14a,15,16,16a-hexadecahydrospiro[cyclopropa[e]pyrrolo[1,2-a][1,4]diazacyclopentadecine-2,3′-pyrano[2,3-c]quinolin]-6-yl]carbamate] |  |  | 0.007 nM | 1.08 nM | 
10 | COCCC(C)(C)OC(=O)N[C@H]1CCCCC/C=C\[C@@H]2C[C@@]2(C(=O)NS(=O)(=O)C2(C)CC2)NC(=O)[C@@H]2C[C@]3(CCc4c(c(C)nc5ccc(OC(F)(F)F)cc45)O3)CN2C1=O [Example 208, 4-methoxy-2-methylbutan-2-yl [(2R,6S,12Z,13aS,14aR,16aS)-5′-methyl-14a-{[(1-methylcyclopropyl)sulfonyl]carbamoyl}-5,16-dioxo-9′-(trifluoromethoxy)-1,1′,2′,5,6,7,8,9,10,11,13a,14,14a,15,16,16a-hexadecahydrospiro[cyclopropa[e]pyrrolo[1,2-a][1,4]diazacyclopentadecine-2,3′-pyrano[2,3-c]quinolin]-6-yl]carbamate] |  |  | 0.009 nM | 2.05 nM | 
11 | COc1ccc2nc(C(C)C)c3c(c2c1)C(F)(F)C[C@]1(C[C@H]2C(=O)N[C@]4(C(=O)NS(=O)(=O)C5(C)CC5)C[C@H]4/C=C\CCCCC[C@H](NC(=O)OC4CCCC4)C(=O)N2C1)O3 [Example 210, cyclopentyl [(2S,6S,12Z,13aS,14aR,16aS)-1′,1′-difluoro-9′-methoxy-14a-{[(1-methylcyclopropyl)sulfonyl]carbamoyl}-5,16-dioxo-5′-(propan-2-yl)-1,1′,2′,5,6,7,8,9,10,11,13a,14,14a,15,16,16a-hexadecahydrospiro[cyclopropa[e]pyrrolo[1,2-a][1,4]diazacyclopentadecine-2,3′-pyrano[2,3-c]quinolin]-6-yl]carbamate] |  |  | 0.008 nM | 2.38 nM | 
12 | COc1ccc2nc(C(C)C)c3c(c2c1)C(F)(F)C[C@]1(C[C@H]2C(=O)N[C@]4(C(=O)NS(=O)(=O)C5(C)CC5)C[C@H]4/C=C\CCCCC[C@H](NC(=O)OCC(C)C)C(=O)N2C1)O3 [Example 211, 2-methylpropyl [(2S,6S,12Z,13aS,14aR,16aS)-1′,1′-difluoro-9′-methoxy-14a-{[(1-methylcyclopropyl)sulfonyl]carbamoyl}-5,16-dioxo-5′-(propan-2-yl)-1,1′,2′,5,6,7,8,9,10,11,13a,14,14a,15,16,16a-hexadecahydrospiro[cyclopropa[e]pyrrolo[1,2-a][1,4]diazacyclopentadecine-2,3′-pyrano[2,3-c]quinolin]-6-yl]carbamate] |  |  | 0.006 nM | 3.54 nM | 
13 | COc1ccc2nc(C(F)(F)F)c3c(c2c1)CC[C@]1(C[C@H]2C(=O)N[C@]4(C(=O)NS(=O)(=O)C5(C)CC5)C[C@H]4/C=C\CCCCC[C@H](NC(=O)OC4(C)CC4)C(=O)N2C1)O3 [Example 216, 1-methylcyclopropyl [(2R,6S,12Z,13aS,14aR,16aS)-9′-methoxy-14a-{[(1-methylcyclopropyl)sulfonyl]carbamoyl}-5,16-dioxo-5′-(trifluoromethyl)-1,1′,2′,5,6,7,8,9,10,11,13a,14,14a,15,16,16a-hexadecahydrospiro[cyclopropa[e]pyrrolo[1,2-a][1,4]diazacyclopentadecine-2,3′-pyrano[2,3-c]quinolin]-6-yl]carbamate] |  |  | 0.013 nM | 6.43 nM | 
